From the SangsterLogP compilation

Row | logP | Compound
1 | 4.46 | Clc1ccc(C(COCc2ccc(OCc3ccccc3)cc2)Cn2cncn2)c(Cl)c1 (stereo not drawn)
2 | 3.7 | C=C(Cl)COCC(Cn1cncn1)c1ccc(Cl)cc1Cl (stereo not drawn)
3 | 3.91 | CC(C)=CCOCC(Cn1cncn1)c1ccc(Cl)cc1Cl (stereo not drawn)
4 | 4.42 | Clc1ccc(C(COCc2cccs2)Cn2cncn2)c(Cl)c1 (stereo not drawn)
5 | 3.72 | C=C(C)COCC(Cn1cncn1)c1ccc(Cl)cc1Cl (stereo not drawn)
6 | 4.21 | Clc1ccc(C(COCC=Cc2ccccc2)Cn2cncn2)c(Cl)c1 (stereo not drawn)
7 | 4.48 | Clc1ccc(C(COCc2ccc3ccccc3c2)Cn2cncn2)c(Cl)c1 (stereo not drawn)
8 | 4.71 | Clc1ccc(COCC(Cn2cncn2)c2ccc(Cl)cc2Cl)c(Cl)c1 (stereo not drawn)
9 | 0.36 | N#CCCOCC(Cn1cncn1)c1ccc(Cl)cc1Cl (stereo not drawn)
10 | 4.77 | Clc1ccc(C(COCCCc2ccccc2)Cn2cncn2)c(Cl)c1 (stereo not drawn)
11 | 4.84 | CC(C)(C)c1ccc(COCC(Cn2cncn2)c2ccc(Cl)cc2Cl)cc1 (stereo not drawn)
12 | 3.83 | Clc1ccc(C(COCc2ccccc2)Cn2cncn2)c(Cl)c1 (stereo not drawn)
13 | 4.29 | Clc1ccc(C(COCc2ccc(-c3ccccc3)cc2)Cn2cncn2)c(Cl)c1 (stereo not drawn)
14 | 3.72 | O=[N+]([O-])c1ccc(COCC(Cn2cncn2)c2ccc(Cl)cc2Cl)cc1 (stereo not drawn)
15 | 2.93 | C#CCOCC(Cn1cncn1)c1ccc(Cl)cc1Cl (stereo not drawn)
16 | 4.58 | Clc1ccc(C(COCc2cccc(Oc3ccccc3)c2)Cn2cncn2)c(Cl)c1 (stereo not drawn)
17 | 3.85 | COc1cccc(COCC(Cn2cncn2)c2ccc(Cl)cc2Cl)c1 (stereo not drawn)

Row | Compound | logP
18 | C=CCOCC(Cn1cncn1)c1ccc(Cl)cc1Cl (stereo not drawn) | 3.49
